Consider four molecules from US20250295579A1, “SKIN CARE COMPOSITION AND USES THEREOF” (S-BIOMEDIC NV, priority 2022, published 2025).

What all share (assay): Influence of cosmetic ingredients on C. acnes growth in 96-well plates (OD600)
Common to all, as to type: cell-based, Cutibacterium acnes

For one assay, the system named is C. acnes D1 strain. The method, then: (§1) One day before the experiment: starter bacterial cultures of C. acnes A1, D1, H1 and K8 strains from the working cell bank (WCB) glycerol stocks were prepared in a final volume of 15 ml. The C. acnes strains were isolated from healthy volunteers and they were characterized for their growth, 16S and SLST sequence to identify the specific strain. The volumes of WCB were 1 ml for A1 and 300 μl for D1, H1, and K8. The cultures were incubated overnight at 37° C.
(§2) At the day of the experiment, after 24 h incubation, inoculums were taken out of the incubator and homogenized with vortex. 50 μl aliquots were separated from each inoculum to 1.5 ml tubes and their OD600 was measured by Nanodrop.
(§3) Each aliquot was measured twice and its OD600 was determined by calculating the mean value. The tubes were centrifuged (3000 rcf, 5 min) and the supernatant was discarded. The pellet was resuspended in 15 ml of PBS (phosphate buffered saline). This washing, consisting of centrifugation, discarding the supernatant, and resuspension was repeated. Then, the OD600 was adjusted in PBS to 2 for each strain. Small aliquots were separated and read on Nanodrop again at the end of this process to ensure a starting OD600 of 2 (+/−0.2) in the bacterial cultures.
(§4) All the ingredients were tested in either of the two different media: PBS 3% w/v Glucose and PBS 1% w/v Peptone. Additionally, all strains were grown on PBS and PBS 3% w/v Glucose 1% w/v Peptone, as negative and positive control, respectively.
(§5) Medium was prepared at 2.5×concentration and then diluted to 1× when mixed with the ingredient and inoculum into the test plates.
(§6) PBS 7.5% w/v Glucose media was filter sterilized (Millipore pump). 50% w/v Peptone diluted in ultrapure water (Milli-Q) was prepared, autoclaved and then diluted to 2.5% w/v with PBS. PBS 7.5% w/v Glucose 2.5% w/v peptone media was prepared diluting 50% Peptone on filtered PBS 7.125% Glucose.
(§7) The range of concentrations tested was based on the concentration that the chosen compound could have in the final cosmetic product. Three different concentrations were tested for each ingredient: maximum concentration, minimum concentration and a concentration in the middle between the maximum and minimum concentration (half of the highest one).
(§8) All compounds were prepared on milliQ water. 50 ml of stocks for each ingredient were prepared at double of the highest concentration to be tested. After solubilization, the ingredients were filter sterilized.
(§9) The experiment was performed in transparent 96-well plates. Each one of them contained one media (either peptone or glucose), one strain inoculum and either of the ingredients. The final volume in each well was 200 μl: 100 μl of 2× ingredient, 80 μl of 2.5× medium and 20 μl of bacterial inoculum of OD600. Triplicates were done for every condition. Controls without ingredient and without bacteria were included in this experiment to detect possible contaminations.
(§10) One 96-well 2 ml deep well-plate was used for each batch. The double concentrated ingredients were distributed manually on the deep well plate and the corresponding serial dilutions were performed on PBS with an automatic multichannel pipette. Then, the content of each deep well plate was distributed to 8 different 96-standard well plate with Zephyr SPE workstation (automated liquid handler).
(§11) 100 μl of ingredient per well were transferred to each plate. The zephyr program contained a resuspension step on the deep well plate and a step in which the tips leaned on the sides of each well of the plates to ensure the accurate volume disposal.
(§12) Once the 100 μl of ingredient were transferred to each plate, 80 μl of either Glucose or Peptone medium was poured into the plate with Multidrop Combi Plate dispenser (Thermo Fisher). The multidrop was also used to dispense 20 μl per well of the corresponding strain inoculum, which was previously prepared as described in the previous part. […]

The subject of another assay is C. acnes H1 strain. The method, then: as §1, §2, §3, §4, §5, §6, §7, §8, §9, §10, §11, §12
The subject of another assay is C. acnes K8 strain. The method, then: as §1, §2, §3, §4, §5, §6, §7, §8, §9, §10, §11, §12
The next assay relates to C. acnes A1 strain. The settings on record: PBS 1% w/v peptone. The method, then:
as §1, §2, §3, §4, §5, §6, §7, §8, §9, §10, §11, §12

The mark [1] stands for this setting: 0.075% w/v sodium cetaryl sulphate, PBS 3% w/v glucose, FIG. 5.
Where [2] appears, read: 3% w/v sodium lactate, PBS 1% w/v peptone, FIG. 3.
Setting [3] is: 1% v/v glycerol, PBS 1% w/v peptone, FIG. 1.
Where [4] appears, read: 1% w/v sorbitol, PBS 1% w/v peptone, FIG. 2.

Regarding “sodium cetearyl sulphate [Sodium cetaryl sulphate]”, the effect on growth result with C. acnes D1 strain (setting [1]) was “selectively and significantly improved the growth”; with C. acnes H1 strain (setting [1]), “selectively and significantly improved the growth”; with C. acnes K8 strain (setting [1]) it was “Negative effect”.

Regarding `CC(O)C(=O)[O-].[Na+]` (stereo not drawn) [Sodium lactate, sodium lactate], the effect on growth result in the assay on C. acnes A1 strain (3% w/v sodium lactate, FIG. 3) is “improved the growth”; in the assay with C. acnes D1 strain (setting [2]), “improved the growth”; with C. acnes H1 strain (setting [2]), “improved the growth”; in the assay with C. acnes K8 strain (setting [2]), “improved the growth of the four tested strains, with a higher effect on the strain K8”.

As to `OCC(O)CO` [Glycerol], the “improvement of growth compared to the peptone control condition” value in the assay with C. acnes A1 strain (1% v/v glycerol, FIG. 1) was “four”; with C. acnes D1 strain (setting [3]) it was “four”; with C. acnes H1 strain (setting [3]), “four”; in the assay on C. acnes K8 strain (setting [3]), “four”.

Regarding `OC[C@@H](O)[C@@H](O)[C@H](O)[C@@H](O)CO` [Sorbitol], the effect on growth result in the assay on C. acnes A1 strain (1% w/v sorbitol, FIG. 2) is recorded as “improved the growth”; with C. acnes D1 strain (setting [4]), “improved the growth”; in the assay with C. acnes K8 strain (setting [4]) it was “improved the growth”. Besides, the “growth improved by a factor” value with C. acnes H1 strain (setting [4]) was 4.5.
